From paper PMC12029836, “Phytotoxicity, Cytotoxicity, and Antimicrobial Activity of Triethanolammonium Amino Acids Salts” (Molecules, 2025)
Where “and” joins values, the source holds several entries; their conditions need not be identical. Identical values can stand only once. Like-named read-outs stand apart in the source and are kept apart here.

How the values were obtained:
[1] = test system: Lepidium sativum L. seeds; details: 24 h incubation, mean(±SD), n = 3
L929 fibroblasts = assay: Mammalian cell cytotoxicity screening, resazurin viability; assay type: cell-based, mouse
[2] = test system: Lepidium sativum L. roots; details: 24 h incubation, mean(±SD), n = 3
[3] = 0.01% (w/w) compound in the medium
[4] = 0.03% (w/w) compound in the medium
[5] = 0.05% (w/w) compound in the medium
[6] = 0.10% (w/w) compound in the medium
[7] = 0.30% (w/w) compound in the medium
[8] = 0.50% (w/w) compound in the medium
[9] = 1.00% (w/w) compound in the medium
[10] = 2.00% (w/w) compound in the medium
[11] = 3.00% (w/w) compound in the medium
[12] = 4.00% (w/w) compound in the medium
[13] = 5.00% (w/w) compound in the medium

Question: How did the “Inhibition of the Lepidium sativum seeds germination (ISG, %)” value (shortened to “Inhibition … (ISG, %)”) [1, 3] turn out when `CC(C)C[C@H](N)C(=O)O.OCCN(CCO)CCO` [[TEA][Leu]] was run?
Answer: 0.0(±1.9) %

Question: What about the “Inhibition … (ISG, %)” value [1, 4] of the same compound?
Answer: 0.0(±1.9) %

Question: What about the “Inhibition … (ISG, %)” value [1, 5] of the same compound?
Answer: 5.7(±0.5) %

Question: What about the “Inhibition … (ISG, %)” value [1, 6] of the same compound?
Answer: 6.6(±0.9) %

Question: And the “Inhibition … (ISG, %)” value [1, 7]?
Answer: 7.5(±2.1) %

Question: And the “Inhibition … (ISG, %)” value [1, 8]?
Answer: 11.3(±0.8) %

Question: What about the “Inhibition … (ISG, %)” value [1, 9] of the same compound?
Answer: 15.1(±1.6) %

Question: What about the “Inhibition … (ISG, %)” value [1, 10] of the same compound?
Answer: 32.1(±0.1) %

Question: What about the “Inhibition … (ISG, %)” value [1, 11] of the same compound?
Answer: 58.5%

Question: What about the “Inhibition … (ISG, %)” value [1, 12] of the same compound?
Answer: 84.9(±2.5) %

Question: What about the “Inhibition … (ISG, %)” value [1, 13] of the same compound?
Answer: 100(±0.1) %

Question: And the ED20 (L929 fibroblasts; 24h exposure)?
Answer: 0.23±0.02%

Question: And the ED50 (L929 fibroblasts; 24h exposure)?
Answer: 0.51±0.22%

Question: And the ED80 (L929 fibroblasts; 24h exposure)?
Answer: 0.93±0.07%

Question: And the ED20 (L929 fibroblasts; 48h exposure)?
Answer: 0.21±0.01%

Question: And the ED50 (L929 fibroblasts; 48h exposure)?
Answer: 0.51±0.01%

Question: And the ED80 (L929 fibroblasts; 48h exposure)?
Answer: 0.82±0.03%

Question: What about the “Inhibition of the root growth in pregerminated Lepidium sativum seeds (IRG, %)” value (from here on “Inhibition of the root growth … (IRG, %)”) [2, 3] of the same compound?
Answer: 0.0(±0.0) %

Question: What about the “Inhibition of the root growth … (IRG, %)” value [2, 4] of the same compound?
Answer: 8.9(±2.5) %

Question: And the “Inhibition of the root growth … (IRG, %)” value [2, 5]?
Answer: 10.5(±2.1) %

Question: And the “Inhibition of the root growth … (IRG, %)” value [2, 6]?
Answer: 20.3(±1.7) %

Question: And the “Inhibition of the root growth … (IRG, %)” value [2, 7]?
Answer: 30.0(±1.9) %

Question: And the “Inhibition of the root growth … (IRG, %)” value [2, 8]?
Answer: 39.9(±1.5) %

Question: And the “Inhibition of the root growth … (IRG, %)” value [2, 9]?
Answer: 53.0(±1.0) %

Question: What about the “Inhibition of the root growth … (IRG, %)” value [2, 10] of the same compound?
Answer: 67.9(±0.9) %

Question: And the “Inhibition of the root growth … (IRG, %)” value [2, 11]?
Answer: 71.6(±0.8) %

Question: What about the “Inhibition of the root growth … (IRG, %)” value [2, 12] of the same compound?
Answer: 88.7(±0.7) %

Question: And the “Inhibition of the root growth … (IRG, %)” value [2, 13]?
Answer: 94.7(±0.5) %

Question: Which “Inhibition … (ISG, %)” value [1, 3] does the source give for `N[C@@H](Cc1ccccc1)C(=O)O.OCCN(CCO)CCO` [[TEA][Phe]] here?
Answer: 0.0(±0.0) %

Question: What about the “Inhibition … (ISG, %)” value [1, 4] of the same compound?
Answer: 0.0(±0.0) %

Question: And the “Inhibition … (ISG, %)” value [1, 5]?
Answer: 0.9(±0.8) %

Question: What about the “Inhibition … (ISG, %)” value [1, 6] of the same compound?
Answer: 1.8(±0.9) %

Question: And the “Inhibition … (ISG, %)” value [1, 7]?
Answer: 3.5(±1.7) %

Question: What about the “Inhibition … (ISG, %)” value [1, 8] of the same compound?
Answer: 5.3(±0.8) %

Question: What about the “Inhibition … (ISG, %)” value [1, 9] of the same compound?
Answer: 8.8(±1.3) %

Question: What about the “Inhibition … (ISG, %)” value [1, 10] of the same compound?
Answer: 10.5(±0.8) %

Question: What about the “Inhibition … (ISG, %)” value [1, 12] of the same compound?
Answer: 22.8(±2.4) %

Question: And the “Inhibition … (ISG, %)” value [1, 13]?
Answer: 86.0(±2.1) %

Question: What about the ED20 (L929 fibroblasts; 24h exposure) of the same compound?
Answer: 0.37±0.04%

Question: What about the ED50 (L929 fibroblasts; 24h exposure) of the same compound?
Answer: 0.72±0.07% and 0.72%

Question: And the ED80 (L929 fibroblasts; 24h exposure)?
Answer: 1.20±0.19%

Question: What about the ED20 (L929 fibroblasts; 48h exposure) of the same compound?
Answer: 0.38±0.04%

Question: What about the ED50 (L929 fibroblasts; 48h exposure) of the same compound?
Answer: 0.63±0.04%

Question: And the ED80 (L929 fibroblasts; 48h exposure)?
Answer: 0.91±0.14%

Question: What about the “Inhibition of the root growth … (IRG, %)” value [2, 3] of the same compound?
Answer: 23.6%

Question: What about the “Inhibition of the root growth … (IRG, %)” value [2, 4] of the same compound?
Answer: 24.4(±2.0) %

Question: And the “Inhibition of the root growth … (IRG, %)” value [2, 5]?
Answer: 28.5(±2.0) %

Question: And the “Inhibition of the root growth … (IRG, %)” value [2, 6]?
Answer: 44.2(±1.6) %

Question: And the “Inhibition of the root growth … (IRG, %)” value [2, 7]?
Answer: 48.1(±1.7) %

Question: And the “Inhibition of the root growth … (IRG, %)” value [2, 8]?
Answer: 53.1(±1.3) %

Question: And the “Inhibition of the root growth … (IRG, %)” value [2, 9]?
Answer: 60.2(±1.4) %

Question: And the “Inhibition of the root growth … (IRG, %)” value [2, 10]?
Answer: 69.6(±1.1) %

Question: And the “Inhibition of the root growth … (IRG, %)” value [2, 11]?
Answer: 78.3(±0.9) %

Question: What about the “Inhibition of the root growth … (IRG, %)” value [2, 12] of the same compound?
Answer: 83.5(±0.9) %

Question: And the “Inhibition of the root growth … (IRG, %)” value [2, 13]?
Answer: 92.1(±0.6) %

Question: Which “Inhibition … (ISG, %)” value [1, 3] does the source give for `N[C@@H](Cc1c[nH]c2ccccc12)C(=O)O.OCCN(CCO)CCO` [[TEA][Trp]] here?
Answer: 0.0(±0.0) %

Question: And the “Inhibition … (ISG, %)” value [1, 4]?
Answer: 1.9(±0.5) %

Question: And the “Inhibition … (ISG, %)” value [1, 5]?
Answer: 3.7(±1.3) %

Question: And the “Inhibition … (ISG, %)” value [1, 6]?
Answer: 12.0(±0.8) %

Question: What about the “Inhibition … (ISG, %)” value [1, 7] of the same compound?
Answer: 16.7(±2.2) %

Question: And the “Inhibition … (ISG, %)” value [1, 8]?
Answer: 18.5(±1.8) %

Question: What about the “Inhibition … (ISG, %)” value [1, 9] of the same compound?
Answer: 28.7(±1.3) %

Question: And the “Inhibition … (ISG, %)” value [1, 10]?
Answer: 38.9(±1.6) %

Question: And the “Inhibition … (ISG, %)” value [1, 11]?
Answer: 53.7%

Question: And the “Inhibition … (ISG, %)” value [1, 12]?
Answer: 61.1(±1.4) %

Question: What about the “Inhibition … (ISG, %)” value [1, 13] of the same compound?
Answer: 83.3(±0.8) %

Question: What about the “Inhibition of the root growth … (IRG, %)” value [2, 3] of the same compound?
Answer: 38.1%

Question: And the “Inhibition of the root growth … (IRG, %)” value [2, 4]?
Answer: 41.1(±1.2) %

Question: What about the “Inhibition of the root growth … (IRG, %)” value [2, 5] of the same compound?
Answer: 48.8(±1.0) %

Question: And the “Inhibition of the root growth … (IRG, %)” value [2, 6]?
Answer: 51.9(±1.0) %

Question: What about the “Inhibition of the root growth … (IRG, %)” value [2, 7] of the same compound?
Answer: 53.3(±0.4) %

Question: And the “Inhibition of the root growth … (IRG, %)” value [2, 8]?
Answer: 54.7(±1.0) %

Question: And the “Inhibition of the root growth … (IRG, %)” value [2, 9]?
Answer: 57.6(±0.8) %

Question: What about the “Inhibition of the root growth … (IRG, %)” value [2, 10] of the same compound?
Answer: 69.0(±0.8) %

Question: And the “Inhibition of the root growth … (IRG, %)” value [2, 11]?
Answer: 76.0(±0.7) %

Question: What about the “Inhibition of the root growth … (IRG, %)” value [2, 12] of the same compound?
Answer: 88.8(±0.6) %

Question: And the “Inhibition of the root growth … (IRG, %)” value [2, 13]?
Answer: 95.0(±0.4) %

Question: What does the source list for `CC(C)[C@H](N)C(=O)O.OCCN(CCO)CCO` [[TEA][Val]]?
Answer: Inhibition of the Lepidium sativum seeds germination (ISG, %) [1, 3]: 0.0(±0.9) %; Inhibition of the Lepidium sativum seeds germination (ISG, %) [1, 4]: 0.0(±1.7) %; Inhibition of the Lepidium sativum seeds germination (ISG, %) [1, 5]: 0.0(±1.2) %; Inhibition of the Lepidium sativum seeds germination (ISG, %) [1, 6]: 0.0(±1.2) %; Inhibition of the Lepidium sativum seeds germination (ISG, %) [1, 7]: 1.9(±0.5) %; Inhibition of the Lepidium sativum seeds germination (ISG, %) [1, 8]: 3.8(±1.7) %; Inhibition of the Lepidium sativum seeds germination (ISG, %) [1, 9]: 5.7(±0.5) %; Inhibition of the Lepidium sativum seeds germination (ISG, %) [1, 10]: 17.0(±0.5) %; Inhibition of the Lepidium sativum seeds germination (ISG, %) [1, 11]: 28.3(±0.5) %; Inhibition of the Lepidium sativum seeds germination (ISG, %) [1, 12]: 34.0(±1.3) %; Inhibition of the Lepidium sativum seeds germination (ISG, %) [1, 13]: 52.8(±1.3) %; Inhibition of the root growth in pregerminated Lepidium sativum seeds (IRG, %) [2, 3]: 11.6%; Inhibition of the root growth in pregerminated Lepidium sativum seeds (IRG, %) [2, 4]: 11.9(±3.3) %; Inhibition of the root growth in pregerminated Lepidium sativum seeds (IRG, %) [2, 5]: 21.7(±2.8) %; Inhibition of the root growth in pregerminated Lepidium sativum seeds (IRG, %) [2, 6]: 32.7(±2.9) %; Inhibition of the root growth in pregerminated Lepidium sativum seeds (IRG, %) [2, 7]: 49.1(±2.5) %; Inhibition of the root growth in pregerminated Lepidium sativum seeds (IRG, %) [2, 8]: 54.8(±2.6) %; Inhibition of the root growth in pregerminated Lepidium sativum seeds (IRG, %) [2, 9]: 62.9(±2.4) %; Inhibition of the root growth in pregerminated Lepidium sativum seeds (IRG, %) [2, 10]: 73.3(±1.5) %; Inhibition of the root growth in pregerminated Lepidium sativum seeds (IRG, %) [2, 11]: 77.6(±1.7) %; Inhibition of the root growth in pregerminated Lepidium sativum seeds (IRG, %) [2, 12]: 82.0(±1.0) %; Inhibition of the root growth in pregerminated Lepidium sativum seeds (IRG, %) [2, 13]: 89.9(±0.74) %
